Laboratory results reported in patent US20100215747A1, “NANOPARTICLES COMPRISING IONIZABLE, POORLY WATER SOLUBLE CELLULOSIC POLYMERS” (priority 2007, published 2010).
In brackets after ≈: the same amount, converted by molar mass. Where two headings read alike, the source gives them in different places.

Columns and labels:
[1] = Solubility of drug in water; assay type: physicochemical
[2] = Log P value of drug; assay type: physicochemical; conditions: octanol/water
Excerpt: The first property of hydrophobic drugs is that they are extremely hydrophobic. Log P, defined as the base 10 logarithm of the ratio of the drug solubility in octanol to the drug solubility in water, is a widely accepted measure of hydrophobicity. By “extremely hydrophobic” is meant that the Log P value of the drug is at least 4.0, preferably at least 4.5, and most preferably at least 5.0. Log P may be measured experimentally or calculated using methods known in the art. When using a calculated value for Log P, the highest value calculated using any generally accepted method for calculating Log P is used. Calculated Log P values are often referred to by the calculation method, such as C log P, A log P, and M log P. The Log P may also be estimated using fragmentation methods, such as Crippen's fragmentation method (27 J. Chem. Inf. Comput. Sci. 21 (1987)); Viswanadhan's fragmentation method (29 J. Chem. Inf. Comput. Sci. 163 (1989)); or Broto's fragmentation method (19 Eur. J. Med. Chem.-Chim. Theor. 71 (1984). Preferably the Log P value is calculated by using the average value estimated using Crippen's, Viswanadhan's, and Broto's fragmentation methods.

[3] = Experimental: By “solids concentration” is meant the amount of solid polymer added to the PBS solution to measure the solubility of the polymer in the PBS solution. An appropriate PBS solution is an aqueous solution comprising 20 mM sodium phosphate (Na2HPO4), 47 mM potassium phosphate (KH2PO4), 87 mM NaCl, and 0.2 mM KCl, adjusted to pH 6.5 with NaOH. A test to determine whether the polymer is poorly water soluble may be performed as follows. The polymer is initially present in bulk form with average particle sizes of greater than 1 micron. The solid polymer alone is added to a PBS solution to achieve a solids concentration of 0.2 mg/mL polymer in the PBS solution. The PBS solution is stirred for approximately 1 hour at room temperature. Next, a nylon 0.45 μm filter is weighed, and the polymer solution is filtered. The filter is dried overnight at 40° C., and weighed the following morning. The amount of polymer dissolved is calculated from the amount of polymer added to the PBS solution minus the amount of polymer remaining on the filter (mg).
The degree of water solubility of Polymers 2, 3, and 5 were evaluated as follows. […] The amount of dissolved polymer was calculated from amount of polymer added to the PBS solution minus the amount of polymer remaining on the filter (mg). […]

| Molecule | logP [2] | solubility ([1]; read-out: solubility in water) [µg/mL] | Solubility (mg/mL) at pH 6.5 [3] [mg/mL] | also measured |
| --- | --- | --- | --- | --- |
| O=C1NC(=O)C(c2ccccc2)(c2ccccc2)N1 [Drug 3, diphenylhydantoin] | 2.47 | – | – | solubility ([1]; pH 7.5, aqueous buffer, read-out: solubility in water at pH 7.5): ~22 µg/mL (≈ 87.2 µM) |
| Cc1ccc(-c2cc(C(F)(F)F)nn2-c2ccc(S(N)(=O)=O)cc2)cc1 [Drug 1, 4-[5-(4-methylphenyl)-3-(trifluoromethyl)-1H-pyrazol-1-yl]benzenesulfonamide] | – | ~3.5 (≈ 9.18 µM) | – | – |
| CC[C@@H]1C[C@H](N(Cc2cc(C(F)(F)F)cc(C(F)(F)F)c2)C(C)=O)c2cc(C(F)(F)F)ccc2N1C(=O)OC(C)C [Drug 2, [2R,4S]-4-[acetyl-(3,5-bis-trifluoromethyl-benzyl)-amino]-2-ethyl-6-trifluoromethyl-3,4-dihydro-2H-quinoline-1-carboxylic acid isopropyl ester] | – | < 0.01 | – | – |
| cellulose acetate trimellitate [CP5] | – | – | 0.2 | – |
| carboxy methyl ethyl cellulose [CP6] | – | – | 0.2 | – |
| O=C1Cc2cc(CCN3CCN(c4nsc5ccccc45)CC3)c(Cl)cc2N1 [Drug 4] | ~3.6 | ~0.15 (≈ 0.363 µM) | – | – |
